According to ChEMBL document CHEMBL1201862, “PubChem BioAssay data set” (2004):
The source made the active and inactive calls.

Key:
[1] = biological target: Paired box protein Pax-8 (Homo sapiens, UniProt Q06710); assay: PAX8 transcriptional activity inhibition in RMG-I – RMG-I cells, luciferase, cherry-pick, dose response (AID 687027); assay type: functional, cell-based;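 note: luciferase reporter driven by Pax8 target thyroperoxidase promoter measured by SteadyGlo luminescence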
[2] = inhibitors acting on PAX2 in cells – cell-based, plate reader, dry powder samples, selectivity assay for PAX8 inhibitor project, dose response (AID 743048); assay type: functional;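 note: HEK293 cells carrying a WT1 promoter luciferase reporter driven by expressed Pax2; potency is for inhibition of Pax2 driven reporter signal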
[3] = COV362 cell viability loss – plate reader, dry powder, SA12, cytotoxicity control for PAX8 inhibitor project, dose response (AID 743144); assay type: functional, cell-based
[4] = PAX5 cellular inhibition readout – cell-based, plate reader, dry powder samples, selectivity assay for PAX8 inhibitor project, dose response (AID 743047); assay type: functional;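 note: HEK293 cells carrying a Pax5 driven CD19 promoter luciferase reporter; potency of inhibitors that lower reporter luminescence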
[5] = IGROV1 cell killing – plate reader, dry powder samples, PAX8 inhibitor project, dose response (AID 743043); assay type: functional, cell-based; settings: IGROV-1
[6] = OVCAR4 cell viability loss – plate reader, dry powder, SA11, cytotoxicity control for PAX8 inhibitor project, dose response (AID 743150); assay type: functional, cell-based; settings: OVCAR-4
[7] = COV434 cell viability loss – plate reader, dry powder, SA7, cytotoxicity control for PAX8 inhibitor project, dose response (AID 743145); assay type: functional, cell-based
[8] = OV-90 cell viability loss – plate reader, dry powder, SA8, PAX8 inhibitor project, dose response (AID 743149); assay type: functional, cell-based
[9] = PAX8-dependent cell viability loss – plate reader, dry powder, dose response (AID 743049); assay type: functional, cell-based
[10] = activation of miR-122 Renilla sensor silencing – cell-based, Huh7 psiCHECK-miR122, Renilla luciferase, cherry-picked, dose response (AID 651956); assay type: functional;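 note: huh7 hepatoma cells stably carrying a psiCHECK-2 miR-122 sensor plasmid; renilla luciferase signal reporting endogenous miR-122 activity after 48 h compound exposure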
[11] = general mammalian cell viability loss – activator set, cherry-pick, cytotoxicity control for miR-122 modulator project, dose response (AID 720690); assay type: functional, cell-based;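 note: HEK293T human cells scored for general mammalian cytotoxicity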
[12] = Luminescence Cell-Based Dose Confirmation HTS to Identify Activators of 5'UTR Stem-Loop Driven Alpha-Synuclein mRNA Translation in H4 Neuroglioblastoma Cells. [Related pubchem assays: 1829 (Project Summary), 1814 (Primary HTS)]; assay type: functional
[13] = Luminescence Cell-Based Dose Response HTS to Identify Activators of Luciferase Translation or Activity in H4 […] Cells. [Related pubchem assays: 1829 (Project Summary), 1814 (Primary HTS)]; assay type: functional
[14] = test system: H4; assay: Luminescence Cell-Based Dose Response HTS to Identify Activators of 5'UTR Stem-Loop Driven Prion Protein mRNA Translation in H4 Neuroglioblastoma Cells. [Related pubchem assays: 1829 (Project Summary), 1814 (Primary HTS)]; assay type: functional; settings: Homo sapiens
[15] = test system: INS1; assay: INS-1E survival protection against cytokine death – cell-based, luminescence, retest, dose response (AID 449756); assay type: functional; settings: Rattus norvegicus;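 note: cell death triggered by IL-1 beta plus TNF-alpha plus IFN-gamma mixture; protective hits raise ATP signal compared with cytokine alone wells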
[16] = viability loss in HepG2 hepatoma cells – cell-based, ATP luminescence, cherry-pick, activator set 2, cytotoxicity control, dose response (AID 1053143); assay type: functional
[17] = reduction of Shn3 3'UTR-driven luciferase in osteoblasts – cell-based, Clone20 osteoblasts, firefly luciferase, cherry-picked, dose response (AID 624132); assay type: functional;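 note: firefly luciferase luminescence from reporter carrying the Shn3 3'UTR in osteoblasts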
[18] = loss of viability in HepG2 cells – cell-based, CellTiter-Glo, cherry-picked, cytotoxicity control for Shn3 inhibitor project, dose response (AID 624134); assay type: functional
[19] = Shn3 3'UTR reporter signal decrease – cell-based, Clone20 osteoblasts, firefly luciferase, cherry-pick, set 2, Schnurri-3 inhibitor project, dose response (AID 720490); assay type: functional;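 note: actives lower the luminescence signal as inhibitors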
[20] = EF1alpha-driven Renilla reporter with control 3'UTR suppression – Clone20-Shn3RL cells, dual-Glo, cherry-pick, set 2, counter-screen for Shn3 3'UTR targeting project, dose response (AID 720724); assay type: functional, cell-based; settings: Dual-Go Shn3RL
[21] = biological target: Fatty acid synthase (Homo sapiens, UniProt P49327); assay: inhibition of human FAS-TE enzyme activity – biochemical, endpoint fluorescence intensity, powder samples, SAR follow-up (AID 652164); assay type: functional
[22] = general cell-killing toxicity readout – plate reader, dry powder samples, cytotoxicity control for PAX8 inhibitor project, dose response (AID 743021); assay type: functional, cell-based
[23] = viability loss in HepG2 liver cells – cell-based, ATP luminescence, cherry-pick, set 6, cytotoxicity control, dose response (AID 1053125); assay type: functional
[24] = cells; settings: A549
[25] = cells
[26] = cells; settings: HEK293
[27] = fungal growth arrest, C. neoformans – Alamar Blue, cherry-picks, dose response (AID 686998); assay type: functional, organism-based
[28] = test system: HEK293; assay: viability loss in HEK293T cells – cell-based, ATP luminescence, cherry-pick samples, cytotoxicity control, dose response (AID 687005); assay type: functional; settings: Homo sapiens;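 note: cells exposed to compound for 48 hours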
[29] = HEK293 Cytotoxicity Assay Measured in Cell-Based System Using Plate Reader - 7071-01_Inhibitor_Dose_CherryPick_Activity_Set2.; assay type: functional
[30] = Late stage assay provider results from the probe development effort to identify selective inhibitors of heat shock protein 90 (HSP90): Absorbance-based cell proliferation assay in SKBR3 cells.; assay type: functional; settings: SK-BR-3
[31] = Late stage assay provider results from the probe development effort to identify selective inhibitors of heat shock protein 90 (HSP90): Absorbance-based cell proliferation assay in MCF7 cells.; assay type: functional
[32] = non-specific 3'UTR reporter inhibition in Clone20-Shn3RL – cell-based, Renilla luciferase, cherry-picked, counter-screen for Shn3 inhibitor project, dose response (AID 624133); assay type: functional
[33] = biological target: T1, Protein skinhead-1 (Caenorhabditis elegans, UniProt P34707); assay type: functional
T1 sequence (P34707 whole entry): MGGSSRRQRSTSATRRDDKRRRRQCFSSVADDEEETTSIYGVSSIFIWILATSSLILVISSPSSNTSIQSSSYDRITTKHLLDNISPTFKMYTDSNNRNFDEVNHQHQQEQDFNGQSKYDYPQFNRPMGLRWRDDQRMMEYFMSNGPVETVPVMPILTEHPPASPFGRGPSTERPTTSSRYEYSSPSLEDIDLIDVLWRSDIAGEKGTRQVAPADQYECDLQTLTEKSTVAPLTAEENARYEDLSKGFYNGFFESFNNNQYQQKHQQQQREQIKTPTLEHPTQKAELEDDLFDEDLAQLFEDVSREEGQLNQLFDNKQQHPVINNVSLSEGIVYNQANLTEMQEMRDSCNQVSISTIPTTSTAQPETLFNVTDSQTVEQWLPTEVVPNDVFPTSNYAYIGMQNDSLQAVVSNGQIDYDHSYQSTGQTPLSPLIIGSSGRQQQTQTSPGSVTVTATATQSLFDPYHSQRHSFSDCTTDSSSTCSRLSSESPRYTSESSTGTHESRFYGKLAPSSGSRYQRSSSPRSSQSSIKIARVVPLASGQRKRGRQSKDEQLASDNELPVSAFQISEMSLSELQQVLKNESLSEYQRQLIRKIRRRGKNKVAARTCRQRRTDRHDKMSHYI

[34] = Fluorescence-based cell-based high throughput dose response assay for inhibitors of the interaction of nucleotide-binding oligomerization domain containing 2 (NOD2) and the receptor-interacting serine-threonine kinase 2 (RIPK2).; assay type: functional; settings: Homo sapiens
[35] = biological target: Beta Lactamase (Pseudomonas aeruginosa, UniProt Q932Y6); assay: BLA reporter interference, concentration series – BLA reporter cells, FRET fluorescence, artefact control for NOD2-RIPK2 interaction inhibitor project, dose response (AID 651552); assay type: functional, cell-based
[36] = A549 cell cytotoxicity, dose response, cytotoxicity control, plate reader, cherry-pick, antagonist series (AID 743412); assay type: functional, cell-based
[37] = toxicity toward HepG2 liver cells – cell-based, plate reader, cherry-pick, antagonist series, cytotoxicity control, dose response (AID 743416); assay type: functional
[38] = blockers of bursicon-stimulated LGR2 cAMP reporter – cell-based, HEK293, CRE-luciferase reporter, cherry pick, set 2, dose response (AID 743343); assay type: functional;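 note: transfected cells were stimulated with diluted bursicon conditioned medium after compound addition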
[39] = blockade of melanocortin 4 receptor signaling – cell-based, plate reader, cherry pick, counter-screen for LGR2 antagonist project, dose response (AID 743444); assay type: functional;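 note: transfected HEK 293 cells stimulated with alpha-MSH peptide; potency of inhibitors of the alpha-MSH evoked signal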
[40] = viability loss in HEK293 cells – cell-based, plate reader, cherry-picked samples, cytotoxicity control, dose response (AID 743446); assay type: functional
[41] = test system: HEK293; assay: inhibition of NOD1-driven NF-kB reporter – cell-based, luminescence, uHTS, primary screen (AID 1578); assay type: functional; settings: Homo sapiens
[42] = test system: BJ; assay: BJ-TERT fibroblast viability loss – cell-based, RAS-independent, luminescence, dose response (AID 1933); assay type: functional; settings: Homo sapiens
[43] = test system: HEK293; assay: cells; assay type: functional, cell-based; settings: Homo sapiens
[44] = test system: BJ; assay: cells; assay type: functional, cell-based; settings: Homo sapiens
[45] = test system: HEK293; assay: cells; assay type: functional, cell-based; settings: Homo sapiens; remark: listed apart in the source
[46] = biological target: Luciferin 4-monooxygenase (Photinus pyralis, UniProt P08659); assay: inhibition of purified Photinus pyralis luciferase – biochemical, luminescence, dose response (AID 1891)
[47] = Luminescence Cell-Based Dose Confirmation HTS to Identify Inhibitors of Platelet Dense Granule Release. [Related pubchem assays: 1663 (Primary HTS), 1678 (Summary of Project)]; assay type: functional
[48] = biological target: Nucleotide-binding oligomerization domain-containing protein 2 (Homo sapiens, UniProt Q9HC29); assay: inhibition of NOD2-driven NF-kB reporter – cell-based, luminescence, uHTS, HEK293 (AID 1566); assay type: functional
[49] = test system: HEK293; assay: cells; assay type: functional, cell-based; settings: Homo sapiens; remark: listed apart in the source
[50] = test system: BJ; assay: BJ-TERT-LT-ST fibroblast viability loss – cell-based, RAS-independent, luminescence, dose response (AID 1935); assay type: functional; settings: Homo sapiens;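 note: BJ fibroblasts immortalized with TERT plus LT and ST oncogenes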
[51] = DRD fibroblast viability loss – cell-based, non-viral oncogenic, luminescence, dose response (AID 1934); assay type: functional; settings: Homo sapiens
[52] = biological target: Disintegrin and metalloproteinase domain-containing protein 17 (Homo sapiens, UniProt P78536); assay: exosite inhibitors of ADAM17, dose response, biochemical (AID 743260)
[53] = inhibition of ADAM10 peptide cleavage – biochemical, FRET peptide substrate, recombinant human ADAM10, selectivity assay for ADAM17 exosite inhibitor project, dose response (AID 743259);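 note: ADAM10 enzyme cleaving a FRET peptide substrate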

Chain of Paired box protein Pax-8 (Q06710 whole entry): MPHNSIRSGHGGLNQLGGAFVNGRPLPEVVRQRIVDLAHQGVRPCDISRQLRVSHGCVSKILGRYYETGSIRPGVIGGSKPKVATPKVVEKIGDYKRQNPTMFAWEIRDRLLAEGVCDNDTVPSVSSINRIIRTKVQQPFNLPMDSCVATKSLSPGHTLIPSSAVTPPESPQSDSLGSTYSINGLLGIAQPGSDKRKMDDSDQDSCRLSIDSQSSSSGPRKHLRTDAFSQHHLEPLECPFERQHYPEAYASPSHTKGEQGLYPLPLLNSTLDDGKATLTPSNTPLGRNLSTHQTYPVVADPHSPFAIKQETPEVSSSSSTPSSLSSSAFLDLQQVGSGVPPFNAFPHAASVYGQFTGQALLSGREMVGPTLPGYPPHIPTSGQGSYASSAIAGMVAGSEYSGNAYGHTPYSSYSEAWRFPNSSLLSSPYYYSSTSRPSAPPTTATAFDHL
Chain of Fatty acid synthase (P49327 whole entry): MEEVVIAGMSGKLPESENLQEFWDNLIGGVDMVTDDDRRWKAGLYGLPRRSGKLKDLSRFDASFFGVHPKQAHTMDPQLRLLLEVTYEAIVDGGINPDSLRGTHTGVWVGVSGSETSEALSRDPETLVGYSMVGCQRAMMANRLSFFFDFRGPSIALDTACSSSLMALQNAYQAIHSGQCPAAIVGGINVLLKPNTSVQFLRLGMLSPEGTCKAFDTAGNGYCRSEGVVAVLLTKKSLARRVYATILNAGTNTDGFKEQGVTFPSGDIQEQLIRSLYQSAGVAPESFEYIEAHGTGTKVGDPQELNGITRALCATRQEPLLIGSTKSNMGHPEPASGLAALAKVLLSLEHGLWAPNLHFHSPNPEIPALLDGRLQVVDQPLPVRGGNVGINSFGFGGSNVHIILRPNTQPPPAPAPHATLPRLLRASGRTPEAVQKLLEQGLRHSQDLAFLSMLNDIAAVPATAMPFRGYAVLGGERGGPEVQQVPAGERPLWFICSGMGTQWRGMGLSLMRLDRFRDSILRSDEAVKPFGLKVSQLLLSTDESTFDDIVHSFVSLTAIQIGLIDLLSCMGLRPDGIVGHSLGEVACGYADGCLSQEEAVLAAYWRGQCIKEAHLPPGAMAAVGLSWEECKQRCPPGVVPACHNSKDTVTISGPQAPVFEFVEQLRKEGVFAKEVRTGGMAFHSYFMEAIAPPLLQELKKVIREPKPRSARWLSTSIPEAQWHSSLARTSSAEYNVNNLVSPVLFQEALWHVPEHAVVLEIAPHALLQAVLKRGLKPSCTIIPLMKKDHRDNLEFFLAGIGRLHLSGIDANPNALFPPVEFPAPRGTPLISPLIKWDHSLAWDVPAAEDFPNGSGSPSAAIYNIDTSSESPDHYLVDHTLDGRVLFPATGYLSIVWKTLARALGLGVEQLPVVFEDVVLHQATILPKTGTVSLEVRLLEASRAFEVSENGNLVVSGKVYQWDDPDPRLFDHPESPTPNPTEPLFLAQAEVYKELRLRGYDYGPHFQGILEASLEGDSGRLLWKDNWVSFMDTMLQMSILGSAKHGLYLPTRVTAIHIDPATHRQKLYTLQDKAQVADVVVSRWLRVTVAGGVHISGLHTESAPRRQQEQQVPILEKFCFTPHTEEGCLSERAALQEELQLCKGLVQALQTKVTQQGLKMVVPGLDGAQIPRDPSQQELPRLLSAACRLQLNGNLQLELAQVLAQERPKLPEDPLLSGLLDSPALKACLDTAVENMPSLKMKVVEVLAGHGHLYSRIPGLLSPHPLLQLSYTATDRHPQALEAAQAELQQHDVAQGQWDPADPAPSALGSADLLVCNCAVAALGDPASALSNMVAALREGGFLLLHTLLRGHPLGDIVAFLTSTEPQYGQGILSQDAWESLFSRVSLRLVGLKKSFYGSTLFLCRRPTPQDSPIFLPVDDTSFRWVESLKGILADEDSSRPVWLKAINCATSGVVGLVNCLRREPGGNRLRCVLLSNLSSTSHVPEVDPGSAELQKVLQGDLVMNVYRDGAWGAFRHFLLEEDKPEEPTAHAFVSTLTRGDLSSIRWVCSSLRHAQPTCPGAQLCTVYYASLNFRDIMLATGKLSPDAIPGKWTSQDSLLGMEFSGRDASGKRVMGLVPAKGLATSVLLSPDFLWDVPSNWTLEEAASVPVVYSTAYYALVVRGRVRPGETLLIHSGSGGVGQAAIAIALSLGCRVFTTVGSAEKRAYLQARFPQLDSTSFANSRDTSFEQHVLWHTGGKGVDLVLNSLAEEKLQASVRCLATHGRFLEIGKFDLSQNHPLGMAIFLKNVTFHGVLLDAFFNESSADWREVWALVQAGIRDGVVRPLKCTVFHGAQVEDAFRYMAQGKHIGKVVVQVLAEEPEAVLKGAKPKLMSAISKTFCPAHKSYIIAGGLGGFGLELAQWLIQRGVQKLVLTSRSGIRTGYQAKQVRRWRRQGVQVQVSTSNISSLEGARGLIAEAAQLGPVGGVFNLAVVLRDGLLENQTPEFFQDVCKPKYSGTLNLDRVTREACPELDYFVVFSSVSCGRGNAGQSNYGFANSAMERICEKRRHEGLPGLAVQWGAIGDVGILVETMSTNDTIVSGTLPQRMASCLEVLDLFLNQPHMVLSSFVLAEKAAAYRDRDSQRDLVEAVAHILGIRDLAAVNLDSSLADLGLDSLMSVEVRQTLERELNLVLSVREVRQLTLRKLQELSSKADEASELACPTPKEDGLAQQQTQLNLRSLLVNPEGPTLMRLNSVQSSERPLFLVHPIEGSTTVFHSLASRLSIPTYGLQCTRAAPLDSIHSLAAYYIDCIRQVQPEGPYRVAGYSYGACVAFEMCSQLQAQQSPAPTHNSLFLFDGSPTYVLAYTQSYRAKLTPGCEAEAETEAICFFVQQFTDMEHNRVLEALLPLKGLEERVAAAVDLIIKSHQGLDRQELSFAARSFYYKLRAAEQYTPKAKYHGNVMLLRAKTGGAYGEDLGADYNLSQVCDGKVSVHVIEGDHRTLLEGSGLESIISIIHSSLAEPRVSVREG
Chain of Beta Lactamase (Q932Y6 whole entry): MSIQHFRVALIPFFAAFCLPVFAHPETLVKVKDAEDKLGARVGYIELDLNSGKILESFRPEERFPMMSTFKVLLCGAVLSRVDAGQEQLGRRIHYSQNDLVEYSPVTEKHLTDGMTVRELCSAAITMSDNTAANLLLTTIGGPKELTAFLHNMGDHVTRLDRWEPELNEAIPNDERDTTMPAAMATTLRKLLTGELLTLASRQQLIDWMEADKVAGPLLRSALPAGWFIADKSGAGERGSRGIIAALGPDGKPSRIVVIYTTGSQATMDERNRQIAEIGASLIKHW
Chain of Luciferin 4-monooxygenase (P08659 whole entry): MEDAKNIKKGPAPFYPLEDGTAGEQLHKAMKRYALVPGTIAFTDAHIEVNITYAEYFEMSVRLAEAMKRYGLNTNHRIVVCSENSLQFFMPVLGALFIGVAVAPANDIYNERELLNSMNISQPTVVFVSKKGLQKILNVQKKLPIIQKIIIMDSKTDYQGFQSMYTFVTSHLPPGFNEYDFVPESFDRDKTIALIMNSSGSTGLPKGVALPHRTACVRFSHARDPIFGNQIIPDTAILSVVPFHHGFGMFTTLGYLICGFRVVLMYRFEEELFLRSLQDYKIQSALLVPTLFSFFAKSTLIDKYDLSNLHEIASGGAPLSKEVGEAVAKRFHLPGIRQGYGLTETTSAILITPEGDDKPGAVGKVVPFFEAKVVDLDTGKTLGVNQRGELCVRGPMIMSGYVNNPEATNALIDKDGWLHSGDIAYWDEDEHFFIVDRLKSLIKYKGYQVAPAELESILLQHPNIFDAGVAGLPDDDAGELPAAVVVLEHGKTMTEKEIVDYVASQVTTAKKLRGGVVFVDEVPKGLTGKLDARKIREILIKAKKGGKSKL
Chain of Disintegrin and metalloproteinase domain-containing protein 17 (P78536 whole entry, the tested form may be a part): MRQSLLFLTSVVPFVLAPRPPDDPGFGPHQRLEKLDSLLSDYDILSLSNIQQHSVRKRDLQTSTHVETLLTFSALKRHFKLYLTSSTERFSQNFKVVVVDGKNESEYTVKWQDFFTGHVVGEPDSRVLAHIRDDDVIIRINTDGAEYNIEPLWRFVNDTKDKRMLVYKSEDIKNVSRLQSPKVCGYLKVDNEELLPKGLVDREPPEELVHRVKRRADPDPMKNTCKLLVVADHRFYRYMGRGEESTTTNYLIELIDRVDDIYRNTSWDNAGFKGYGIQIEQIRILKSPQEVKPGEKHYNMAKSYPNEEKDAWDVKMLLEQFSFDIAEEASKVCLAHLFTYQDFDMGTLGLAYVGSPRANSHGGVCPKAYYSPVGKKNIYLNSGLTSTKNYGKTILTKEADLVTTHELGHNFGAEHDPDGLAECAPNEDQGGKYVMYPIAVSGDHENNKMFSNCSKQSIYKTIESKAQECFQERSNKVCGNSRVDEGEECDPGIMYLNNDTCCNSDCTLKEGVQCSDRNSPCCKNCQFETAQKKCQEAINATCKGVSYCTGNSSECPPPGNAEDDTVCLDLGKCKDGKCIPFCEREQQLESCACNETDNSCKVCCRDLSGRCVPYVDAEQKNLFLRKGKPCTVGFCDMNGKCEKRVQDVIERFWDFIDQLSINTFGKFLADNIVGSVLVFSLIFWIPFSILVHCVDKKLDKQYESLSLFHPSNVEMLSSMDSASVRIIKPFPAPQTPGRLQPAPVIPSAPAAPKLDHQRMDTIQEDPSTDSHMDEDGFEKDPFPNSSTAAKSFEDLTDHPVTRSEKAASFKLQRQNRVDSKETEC

With `C[C@@H]1CN([C@H](C)CO)C(=O)c2cc(NC(=O)CCCCCC(=O)Nc3ccccc3N)ccc2O[C@@H]1CN(C)Cc1ccc(C(F)(F)F)cc1` the AC50 [1] was 6.43 µM (active), the AC50 [2] was > 32 µM (inactive) and the AC50 [3] was 32.9 µM (active). For the same compound, the AC50 [4] was 30 µM (active), the AC50 [5] was 39 µM (active) and the AC50 [6] was 31.2 µM (active). For the same compound, the AC50 [7] was > 70 µM (inactive), the AC50 [8] was > 70 µM (inactive) and the AC50 [9] was 10.1 µM (active).
In the case of `CO[C@@H]1CN(C)C(=O)c2ccc(NC(=O)c3ccc(Oc4ccccc4)cc3)cc2OC[C@H](C)NC[C@@H]1C`, the AC50 [10] is reported as 11.3 µM (active) and the AC50 [11] is reported as 23.6 µM (active).
For `COc1ccc(C2CC(c3ccc4ccccc4c3OC(C)=O)=NN2C(C)=O)cc1` (stereo unspecified), the EC50 [12] was 0.512 µM (active), the EC50 [13] was 3.82 µM (active) and the EC50 [14] was 0.456 µM (active). The AC50 [15] was 3.3 µM (active) and the AC50 [16] was 26 µM (active).
With `CN(CC(=O)Nc1ccccc1Cl)C(=O)c1cccc(S(=O)(=O)N2CCN(c3ccccc3)CC2)c1` the AC50 [17] was 3.84 µM (active), the AC50 [18] was > 70 µM (inactive) and the AC50 [19] was 4.32 µM (active). For the same compound, the AC50 [20] was 47.9 µM (active).
For `CCC(=O)Nc1nc(-c2ccc(S(=O)(=O)N3CCC(C)CC3)cc2)cs1`, the IC50 [21] was > 80 µM (inactive).
In the case of `COC(=O)C1C=CC(OC2OC(COC(C)=O)C(OC(C)=O)C(OC(C)=O)C2OC(C)=O)n2c(=O)n(-c3ccccc3)c(=O)n21` (stereo unspecified), the AC50 [1] is reported as 3.41 µM (active) and the AC50 [22] is reported as 40 µM (active).
In the case of `Nc1c(C(=O)NCc2ccccc2)c2nc3ccccc3nc2n1CCCN1CCOCC1`, the AC50 [23] is reported as 17.1 µM (active), the AC50 [24] is reported as 15.6 µM (active) and the AC50 [25] is reported as 32.1 µM (active). For the same compound, the AC50 [26] was 25.2 µM (active).
For `COC(=O)C1=C(C)N(C)C(S)=NC1c1ccccc1` (stereo unspecified), the AC50 [27] was 120 µM (active), the AC50 [28] was > 92 µM (inactive) and the AC50 [29] was > 92 µM (inactive).
For `O=C(Nc1ccccc1I)c1coc(=O)c(Br)c1`, the IC50 [30] was 45.3 µM (inactive) and the IC50 [31] was 29.4 µM (inactive).
For `O=C1NC2C(=CC(O)C(O)C2O)c2cc3c(c(O)c21)OCO3` (stereo unspecified), the AC50 [17] was < 0.26 µM (active), the AC50 [18] was 59 µM (active) and the AC50 [32] was 0.431 µM (active). The IC50 [33] was 24 µM (active), the IC50 [34] was 49.7 µM (inactive) and the IC50 [35] was 49.7 µM (inactive). The AC50 [36] was 0.17 µM (active), the AC50 [37] was 0.218 µM (active) and the AC50 [38] was 0.138 µM (active). The AC50 [39] was 0.161 µM (active) and the AC50 [40] was 0.167 µM (active).
For `Cc1ccccc1S(=O)(=O)Cc1ccc(C(=O)N2CCN(c3cccc(C)c3C)CC2)o1`, the EC50 [41] was 5.29 µM (active), the EC50 [42] was 11.1 µM (active) and the IC50 [43] was 3.96 µM (active). The EC50 [44] was 10 µM (inconclusive), the IC50 [45] was 10.5 µM (active) and the EC50 [46] was 28.5 µM (active). The EC50 [47] was > 112 µM (not active), the EC50 [48] was 10.8 µM (active) and the IC50 [49] was > 20 µM (inactive). For the same compound, the EC50 [50] was 4.92 µM (active), the EC50 [51] was 4.95 µM (active) and the IC50 [52] was > 69.6 µM (inactive). For the same compound, the IC50 [53] was 11.7 µM (inactive).
